Like-named read-outs stand apart in the source and are kept apart here. No end group written: not given here.
Experiments:
[1] = test system: αLβ2-mediated adhesion of Mn++-activated H9 cells to ICAM-1; experiment: Cell adhesion assay: adhesion of Mn2+-activated H9 cells to ICAM-1-Fc; format: cell-based, human; conditions: for blocking of adhesion (in words): at 100 μM; for inhibition of cell adhesion to ICAM-1 (in words): Mn++-activated H9 cells, cell-permeable fusion peptide
Experimental: The human T lymphoma cell line H9, was purchased from the American Type Culture Collection, Rockville, Md. It was cultured at 37° C. in 1640 medium supplemented with 50 U/ml penicillin, 50 μg/ml streptomycin, 200 μg/ml L-glutamine, 10% (v/v) FCS and 0.05 mM β-mercaptoethanol. All synthetic peptides were custom made by Mimotopes Pty Ltd., Victoria, Australia. The β2cyt peptides were N-terminally fused during synthesis to biotinylated penetratin (RQIKIWFQNRRMKWKK—Seq ID No. 22) or to a biotinylated D-isomeric form of an R9 polymer (Seq ID No. 32) to render them cell-permeable.
The soluble ICAM-1-Fc chimera was produced using the glutamine synthetase gene amplification system. The extracellular portions of human ICAM-1 fused to the Fc domain of human IgG1 were expressed from the pEE14 vector (kindly provided by Dr Chris Bebbington, Celltech Ltd, UK) in CHO K1 cells as described previously (18).
Lab-Tek 16-well glass slides (Nunc) or flat-bottom 96-well plates (Nunc Maxisorp) were coated overnight at 4° C. with purified ICAM-1-Fc at 10 μg/well in 100 μl of 0.1 M carbonate buffer (pH 9.5). After washing plates were blocked with 100% heat-inactivated FCS, and washed with Hanks balanced salt solution (HBSS) containing 10 mM Hepes, 2 mM Ca^2+ and 2 mM Mn^2+. H9 cells were either left unlabeled or labeled with the fluorescent dye chloromethyl fluorescein diacetate (CMFDA; Molecular Probes, Oregon). For peptide inhibition studies, H9 cells were preincubated with peptide in serum-free medium for 30 min at 37° C. and activated by suspension in an Mn^2+-containing buffer (HBSS: 10 mM Hepes containing 2 mM Ca^2+, 2 mM Mn^2+, and 2% FCS). Human IgG1 Ab (10 μg/ml; Sigma) was added to prevent nonspecific capture of cells to the Fc portion of […]. Cells were checked for viability by trypan blue exclusion, added to wells (10^6cells/well), and incubated for 30 min at 37° C. in a humidified atmosphere of 5% CO2. Non-adherent cells were removed by inverse centrifugation of the plates at 70×g for 5 min followed by gentle pipette washing. The number of unlabeled adherent cells was determined by counting the number of adherent cells in four independent fields at 100× magnification under an inverted microscope. The fluorescence of CMFDA-labeled adherent cells was measured using a VICTOR1420 multilabel counter (Wallac). Representative data are reported as mean±SD of two independent experiments performed in duplicate.

[2] = at 6 μM, H9 cells to ICAM-1, r9 fusion
[3] = at 25 μM, Mn++-activated H9 cells to ICAM-1, fused to r9
[4] = at 50 μM, Mn++-activated H9 cells to ICAM-1, fused to r9

| Substance | inhibition of adhesion [1, 2] [%] | blocking of adhesion (in words) ([1]; H9 cells to ICAM-1, r9 fusion) | inhibition of cell adhesion to ICAM-1 (in words) [1] | inhibition of adhesion [1, 3] [%] | inhibition of adhesion [1, 4] [%] | further results |
| --- | --- | --- | --- | --- | --- | --- |
| r9-NPKF: core talin-binding motif of β2cyt synthesized as fusion with the r9 carrier peptide (not fully specified (N-terminus); printed as r9-NPKF) | 82 | almost completely blocked adhesion |  |  |  |  |
| r9-NPLFKS: β2cyt hexamer synthesized as fusion with the r9 carrier peptide (not fully specified (N-terminus); printed as r9-NPLFKS) | 24 | almost completely blocked adhesion |  |  |  |  |
| VMNPKFAES (not fully specified (N-terminus); also: biotinylated r9 carrier, attachment not given here) [β2cyt peptide fused to r9 (biotinylated D-isomeric nine-arginine polymer) to render it cell-permeable] |  |  | active | ~50 | ~80 |  |
| KALIHLSDLREY |  |  |  |  |  | uptake of penetratin fusion peptide into cells (H9 cells): readily taken up |
| YRRFEKEKLKSQWNND |  |  |  |  |  | uptake of penetratin fusion peptide into cells (H9 cells; human cell line H9, biotinylated peptide detected with streptavidin-FITC): readily taken up |
| NPLFKSATTT (not fully specified (N-terminus); also: biotinylated r9 carrier, attachment not given here) [β2cyt peptide fused to r9 (biotinylated D-isomeric nine-arginine polymer) to render it cell-permeable] |  |  | active | ~50 | ~80 |  |
